Data published in patent US11365192B2, “Pyridine compound substituted with azole” (TAISHO PHARMACEUTICAL CO., LTD., priority 2017, dated 2022).

What was measured:
human CYP4F2 = human CYP4F2 (Homo sapiens (Human), UniProt P78329); test: Inhibition test against 20-HETE producing enzyme CYP4F2 (luciferine derivative, luminescence); format: biochemical; conditions: E. coli membrane fraction expressing human CYP4F2, 2.5 μM luciferine derivative, room temperature 60 minutes
How it was run: (§1)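 E. coli membranes (100 μg/mL protein) expressing human enzyme, room temperature 60 min, luciferin-derivative luminescence; IC50 from % inhibition. CYP4F2: 50 mM KPO4 pH 7.4, 2.5 μM substrate, 1 mM NADPH. CYP4A11: 100 mM Tris-HCl pH 7.5, 60 μM substrate, NADP+/glucose 6-phosphate/G6PDH regenerating system, 3.3 mM MgCl2.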

human CYP4A11 = human CYP4A11 (Homo sapiens (Human), UniProt Q02928); test: Inhibition test against 20-HETE producing enzyme CYP4A11 (luciferine derivative, luminescence); format: biochemical; conditions: E. coli membrane fraction expressing human CYP4A11, 60 μM luciferine derivative, room temperature 60 minutes
How it was run: as §1

Sequence of human CYP4F2 (P78329 5-520): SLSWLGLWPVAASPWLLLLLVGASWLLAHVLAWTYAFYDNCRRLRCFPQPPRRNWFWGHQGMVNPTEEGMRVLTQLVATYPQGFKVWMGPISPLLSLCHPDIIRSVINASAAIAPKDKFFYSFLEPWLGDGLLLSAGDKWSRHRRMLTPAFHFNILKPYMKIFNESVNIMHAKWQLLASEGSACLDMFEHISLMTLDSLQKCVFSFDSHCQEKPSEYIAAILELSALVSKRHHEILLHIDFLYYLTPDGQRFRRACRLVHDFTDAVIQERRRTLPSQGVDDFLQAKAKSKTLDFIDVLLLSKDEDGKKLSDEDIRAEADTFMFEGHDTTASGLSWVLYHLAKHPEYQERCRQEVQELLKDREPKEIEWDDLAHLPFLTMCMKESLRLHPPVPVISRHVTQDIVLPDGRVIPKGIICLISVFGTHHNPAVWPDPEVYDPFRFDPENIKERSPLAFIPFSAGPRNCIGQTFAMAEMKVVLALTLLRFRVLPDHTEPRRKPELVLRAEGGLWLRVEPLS
Sequence of human CYP4A11 (Q02928 5-519): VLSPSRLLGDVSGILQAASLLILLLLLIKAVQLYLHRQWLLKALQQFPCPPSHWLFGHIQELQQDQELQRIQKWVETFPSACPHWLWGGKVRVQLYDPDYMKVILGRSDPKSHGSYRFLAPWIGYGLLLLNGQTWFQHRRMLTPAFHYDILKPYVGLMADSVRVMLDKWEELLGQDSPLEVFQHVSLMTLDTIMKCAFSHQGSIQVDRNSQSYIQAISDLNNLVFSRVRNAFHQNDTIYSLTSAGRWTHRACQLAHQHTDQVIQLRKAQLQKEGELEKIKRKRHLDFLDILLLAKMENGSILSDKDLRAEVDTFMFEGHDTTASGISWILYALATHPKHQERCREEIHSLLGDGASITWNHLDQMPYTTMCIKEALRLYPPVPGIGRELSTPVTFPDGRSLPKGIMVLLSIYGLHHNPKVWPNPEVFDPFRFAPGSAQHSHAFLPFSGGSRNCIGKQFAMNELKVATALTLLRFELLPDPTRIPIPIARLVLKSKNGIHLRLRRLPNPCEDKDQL

O=C(O)c1ccc(-c2cccc(COc3ccc(-c4ccn[nH]4)nc3)c2)cc1 [Example 31-2]
IC50 (human CYP4F2): 100 nM | IC50 (human CYP4A11): 9.8 nM

O=C(O)c1ccc(-c2cccc(COc3ccc(-c4ccn[nH]4)nc3)c2)cn1 [Example 31-3, 5-[3-[[6-(1H-Pyrazol-5-yl)-3-pyridinyl]oxymethyl]phenyl]-2-pyridinecarboxylic Acid]
IC50 (human CYP4F2): 180 nM | IC50 (human CYP4A11): 25 nM

O=C(O)c1cncc(-c2cccc(COc3ccc(-c4ccn[nH]4)nc3)c2)c1 [Example 31-4]
IC50 (human CYP4F2): 390 nM | IC50 (human CYP4A11): 12 nM

O=C(O)Cc1cccc(CCCOc2ccc(-c3ccn[nH]3)nc2)c1 [Example 32-1, 2-[3-[3-[[6-(1H-Pyrazol-5-yl)-3-pyridinyl]oxy]propyl]phenyl]acetic Acid]
IC50 (human CYP4F2): 430 nM | IC50 (human CYP4A11): 33 nM

CC(C)(C(=O)O)c1cccc(CCCOc2ccc(-c3ccn[nH]3)nc2)c1 [Example 32-2]
IC50 (human CYP4F2): 1300 nM | IC50 (human CYP4A11): 22 nM

CC(=O)N1CCC(C(=O)O)(c2cccc(COc3ccc(-c4ccn[nH]4)nc3)c2)CC1 [Example 33-1, 1-Acetyl-4-[3-[[6-(1H-pyrazol-5-yl)-3-pyridinyl]oxymethyl]phenyl]-4-piperidinecarboxylic Acid]
IC50 (human CYP4F2): 7000 nM | IC50 (human CYP4A11): 180 nM

O=C(O)C1(c2cccc(COc3ccc(-c4ccn[nH]4)nc3)c2)CCOCC1 [Example 33-2, 4-[3-[[6-(1H-Pyrazol-5-yl)-3-pyridinyl]oxymethyl]phenyl]-4-oxanecarboxylic Acid]
IC50 (human CYP4F2): 14000 nM | IC50 (human CYP4A11): 130 nM

O=C(O)C1CCN(c2cccc(COc3ccc(-c4ccn[nH]4)nc3)c2)CC1 [Example 34-1, 1-[3-[[6-(1H-Pyrazol-5-yl)-3-pyridinyl]oxymethyl]phenyl]-4-piperidinecarboxylic Acid]
IC50 (human CYP4F2): 4100 nM | IC50 (human CYP4A11): 42 nM

O=C(O)C1CCCN(c2cccc(COc3ccc(-c4ccn[nH]4)nc3)c2)C1 (stereo not shown) [Example 34-2]
IC50 (human CYP4F2): 11000 nM | IC50 (human CYP4A11): 50 nM

O=C(O)c1cnn(-c2cccc(COc3ccc(-c4ccn[nH]4)nc3)c2)c1 [Example 34-3, 1-[3-[[6-(1H-Pyrazol-5-yl)-3-pyridinyl]oxymethyl]phenyl]-4-pyrazolecarboxylic Acid]
IC50 (human CYP4F2): 390 nM | IC50 (human CYP4A11): 26 nM

O=C(O)Cn1cc(CCCOc2ccc(-c3ccn[nH]3)nc2)nn1 [Example 35-1, 2-[4-[3-[[6-(1H-Pyrazol-5-yl)-3-pyridinyl]oxy]propyl]-1-triazolyl]acetic Acid]
IC50 (human CYP4F2): 20000 nM | IC50 (human CYP4A11): 3000 nM

O=C(O)Cn1cc(CCCCOc2ccc(-c3ccn[nH]3)nc2)nn1 [Example 35-2]
IC50 (human CYP4F2): 5700 nM | IC50 (human CYP4A11): 360 nM

CC(C)(C(=O)O)n1cc(CCCCOc2ccc(-c3ccn[nH]3)nc2)nn1 [Example 35-3]
IC50 (human CYP4F2): 7400 nM | IC50 (human CYP4A11): 290 nM

CC(C)(O)CS(=O)(=O)c1cccc(COc2ccc(-c3ccn[nH]3)nc2)c1 [Example 36-1, 2-Methyl-1-[3-[[6-(1-H-pyrazol-5-yl)-3-pyridinyl]oxymethyl]phenyl] sulfonyl-2-propanol]
IC50 (human CYP4F2): 93 nM | IC50 (human CYP4A11): 82 nM

CC(C)(CCCS(=O)(=O)c1cccc(COc2ccc(-c3ccn[nH]3)nc2)c1)C(=O)O [Example 37-1, 2,2-Dimethyl-5-[3-[[6-(1H-pyrazol-5-yl)-3-pyridinyl]oxymethyl]phenyl] sulfonylpentanoic Acid]
IC50 (human CYP4F2): 32 nM | IC50 (human CYP4A11): 46 nM

O=C(O)CCc1cccc(COc2cnc(-c3ccn[nH]3)c(F)c2)c1 [Example 38-1, 3-[3-[[5-Fluoro-6-(1H-pyrazol-5-yl)-3-pyridinyl]oxymethyl]phenyl]propanoic Acid]
IC50 (human CYP4F2): 1100 nM | IC50 (human CYP4A11): 20 nM

O=C(O)Cc1cccc(COc2ccc(-c3cn[nH]c3)nc2)c1 [Example 38-2, 2-[3-[[6-(1H-Pyrazol-4-yl)-3-pyridinyl]oxymethyl]phenyl]acetic Acid]
IC50 (human CYP4F2): 19000 nM | IC50 (human CYP4A11): 11 nM

Cc1cn[nH]c1-c1ccc(OCC23CCC(C(=O)O)(CC2)CC3)cn1 [Example 38-3, 1-[[6-(4-Methyl-1H-pyrazol-5-yl)-3-pyridinyl]oxymethyl]-4-bicyclo[2.2.2]octanecarboxylic Acid]
IC50 (human CYP4F2): 17000 nM | IC50 (human CYP4A11): 35 nM

O=C(O)Cc1cccc(COc2ccc(-c3ccns3)nc2)c1 [Example 39-1, 2-[3-[[6-(5-Isothiazolyl)-3-pyridinyl]oxymethyl]phenyl]acetic Acid]
IC50 (human CYP4F2): 13000 nM | IC50 (human CYP4A11): 5.3 nM

O=C(O)C12CCC(COc3ccc(-c4ccns4)nc3)(CC1)CC2 [Example 39-2]
IC50 (human CYP4F2): 22000 nM | IC50 (human CYP4A11): 18 nM

O=C(O)Cc1cccc(COc2ccc(-c3cnco3)nc2)c1 [Example 40-1, 2-[3-[[6-(5-Oxazolyl)-3-pyridinyl]oxymethyl]phenyl]acetic Acid]
IC50 (human CYP4F2): 28000 nM | IC50 (human CYP4A11): 9.9 nM

O=C(O)Cc1cccc(COc2ccc(-c3cncs3)nc2)c1 [Example 40-2]
IC50 (human CYP4F2): 8200 nM | IC50 (human CYP4A11): 6.9 nM

NS(=O)(=O)c1cccc(C(=O)N2CCC[C@@H](COc3ccc(-c4ccn[nH]4)nc3)C2)c1 [Example 41-1, 3-[Oxo-[(3R)-3-[[6-(1H-pyrazol-5-yl)-3-pyridinyl]oxymethyl]-1-piperidinyl]methyl]benzenesulfonamide]
IC50 (human CYP4F2): 590 nM | IC50 (human CYP4A11): 250 nM

NS(=O)(=O)c1ccc(C(=O)N2CCC[C@@H](COc3ccc(-c4ccn[nH]4)nc3)C2)cc1 [Example 41-2]
IC50 (human CYP4F2): 450 nM | IC50 (human CYP4A11): 330 nM

O=C(c1ccc(=O)[nH]c1)N1CCC[C@@H](COc2ccc(-c3ccn[nH]3)nc2)C1 [Example 41-3]
IC50 (human CYP4F2): 4300 nM | IC50 (human CYP4A11): 570 nM

O=C(c1cccc(=O)[nH]1)N1CCC[C@@H](COc2ccc(-c3ccn[nH]3)nc2)C1 [Example 41-4]
IC50 (human CYP4F2): 1500 nM | IC50 (human CYP4A11): 710 nM

CCS(=O)(=O)NCC(=O)N1CCC[C@@H](COc2ccc(-c3ccn[nH]3)nc2)C1 [Example 41-5]
IC50 (human CYP4F2): 550 nM | IC50 (human CYP4A11): 1100 nM

NS(=O)(=O)CCCC(=O)N1CCC[C@@H](COc2ccc(-c3ccn[nH]3)nc2)C1 [Example 41-6]
IC50 (human CYP4F2): 320 nM | IC50 (human CYP4A11): 440 nM

CNC(=O)c1cccc(COc2ccc(-c3ccn[nH]3)nc2)c1 [Example 42-1, N-Methyl-3-[[6-(1H-pyrazol-5-yl)-3-pyridinyl]oxymethyl]benzamide]
IC50 (human CYP4F2): 76 nM | IC50 (human CYP4A11): 420 nM

CCCNC(=O)c1cccc(COc2ccc(-c3ccn[nH]3)nc2)c1 [Example 42-2]
IC50 (human CYP4F2): 25 nM | IC50 (human CYP4A11): 110 nM

O=C(NCCO)c1cccc(COc2ccc(-c3ccn[nH]3)nc2)c1 [Example 42-3]
IC50 (human CYP4F2): 210 nM | IC50 (human CYP4A11): 350 nM

CNC(=O)Cc1cccc(COc2ccc(-c3ccn[nH]3)nc2)c1 [Example 42-4]
IC50 (human CYP4F2): 12 nM | IC50 (human CYP4A11): 540 nM

CN(C)C(=O)Cc1cccc(COc2ccc(-c3ccn[nH]3)nc2)c1 [Example 42-5]
IC50 (human CYP4F2): 260 nM | IC50 (human CYP4A11): 200 nM

CCCNC(=O)Cc1cccc(COc2ccc(-c3ccn[nH]3)nc2)c1 [Example 42-6]
IC50 (human CYP4F2): 97 nM | IC50 (human CYP4A11): 300 nM

O=C(Cc1cccc(COc2ccc(-c3ccn[nH]3)nc2)c1)NCCO [Example 42-7]
IC50 (human CYP4F2): 1100 nM | IC50 (human CYP4A11): 760 nM

CNC(=O)CCc1cccc(COc2ccc(-c3ccn[nH]3)nc2)c1 [Example 42-8]
IC50 (human CYP4F2): 70 nM | IC50 (human CYP4A11): 120 nM

CN(C)C(=O)CCc1cccc(COc2ccc(-c3ccn[nH]3)nc2)c1 [Example 42-9]
IC50 (human CYP4F2): 76 nM | IC50 (human CYP4A11): 67 nM

CCCNC(=O)CCc1cccc(COc2ccc(-c3ccn[nH]3)nc2)c1 [Example 42-10]
IC50 (human CYP4F2): 15 nM | IC50 (human CYP4A11): 46 nM
